Key:
hOAT4 = molecular target: T1, hOAT4 (Homo sapiens, UniProt Q9NSA0); test: Two-point inhibition of hOAT4-mediated ES uptake in transfected HEK293 cells; assay type: in vitro ADME; conditions: ES 1 μM, 1 min; for inhibitory effect on hOAT4 (in words): 1 and 10 μM; for enhanced uptake of substrate by hOAT4: at 10 μM
T1 construct: expressed in transfected cells; host or cells: HEK293
T1 sequence (Q9NSA0 1-550): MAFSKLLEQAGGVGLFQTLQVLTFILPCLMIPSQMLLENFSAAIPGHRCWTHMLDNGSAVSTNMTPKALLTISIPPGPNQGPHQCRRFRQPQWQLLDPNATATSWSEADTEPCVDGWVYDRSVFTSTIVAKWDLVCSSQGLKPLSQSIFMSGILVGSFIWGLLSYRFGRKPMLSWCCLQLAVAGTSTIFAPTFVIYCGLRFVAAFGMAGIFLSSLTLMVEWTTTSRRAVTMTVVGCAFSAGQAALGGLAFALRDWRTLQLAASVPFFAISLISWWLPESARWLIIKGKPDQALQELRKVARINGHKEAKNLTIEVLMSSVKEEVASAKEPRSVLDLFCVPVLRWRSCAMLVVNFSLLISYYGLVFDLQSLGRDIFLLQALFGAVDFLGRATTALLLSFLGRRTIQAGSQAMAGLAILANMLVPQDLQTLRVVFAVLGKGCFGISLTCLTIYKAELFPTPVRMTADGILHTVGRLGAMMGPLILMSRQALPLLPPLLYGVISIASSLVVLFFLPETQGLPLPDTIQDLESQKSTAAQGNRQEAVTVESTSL
Experimental: (§1) Well-characterized mOct1-, mOct2-, mOat1-, mOat2-, mOat3-, mMate1-, hOAT1-, hOAT3-, hOAT4-, hMRP2-, mMdr1a- and mMdr1b-transfected HEK293 cells and the respective vector-transfected control HEK293 cells were used.[42],[51],[52] All HEK293 cells (transporter-transfected and vector-transfected) were cultured in DMEM (Sigma, high glucose, 10% FBS, 1% penicillin (10,000 Units/mL)/streptomycin (10 mg/mL)) at 37°C under 5% CO2 in humidified atmosphere. The cells were routinely checked for the absence of mycoplasma infection. For the preparation of HEK293 cell monolayers, 24-well plates were pretreated with a poly-D-lysine hydrobromide solution (0.1 mg/mL). Each well was coated with 0.5 mL of poly-D-lysine solution and incubated for at least 15 min. After complete removal of the solution, the plates were dried for 30 min. Cells (vector-transfected and transporter-transfected) treated with trypsin were immediately seeded into 24-well plates and cultured for 3 days before being used for transport experiments.
For the uptake assay, the growth medium was aspirated, and each well was rinsed three times with 0.5 mL of incubation buffer (HBSS supplemented with 20 mM HEPES, pH 7.4) and incubated for 20 min at 37 °C. Afterward, buffers were removed, and 200 μL of the incubation buffer containing a radiolabeled substrate and the nonlabeled CHD and CDCHD or reference inhibitor (Table S1), respectively, was added to each well and incubated at 37 °C for designated time intervals. After incubation, uptake was terminated by aspirating the reaction mixture and washing the cells three times with 0.4 mL of ice-cold incubation buffer. Cells were solubilized with 0.6 mL of 1N NaOH overnight and transferred into scintillation vials. ^3H and ^14C contents were measured after the addition of 2.5 mL of scintillator in a liquid scintillation counter.
The cellular protein amount was determined in parallel for each cell line (vector- and transporter-transfected) from six wells in a different 24-well reference plate using the Bradford method. For the two-point inhibition assays, each, CHD and CDCHD, was added in two single concentrations of 1 and 10 μM to characterize their inhibitory potential. Incubation was terminated after 1 min. All experiments were conducted in triplicate for every transporter.
The ES incubation buffer contained ^3H-ES and nonlabeled ES in a final concentration of 1 μM. Inhibition of hOAT4-mediated ES uptake by 10 μM BSP was performed as a control experiment.
(§2) The inhibitory effect (I(%)) was calculated according to the formula: [drawing 5] […]

hMRP2 = molecular target: T2, hMRP2 (Homo sapiens, UniProt Q92887); test: Two-point inhibition of hMRP2-mediated efflux of CDCF in transfected HEK293 cells; assay type: in vitro ADME; conditions: 1 and 10 μM; CDCF-DA 5 μM, efflux 10 min
T2 construct: expressed in transfected cells; host or cells: HEK293
Experimental: as §1, with “After complete removal of the solution, the plates were dried for 30 min. Cells (vector-transfected and transporter-transfected) treated with trypsin were immediately seeded into 24-well plates and cultured for 3 days before being used for transport experiments.” left out
After preloading, the incubation buffer was removed, cells were washed twice with cold HBSS incubation buffer, and for the efflux, 0.2 mL of incubation buffer was added to each well containing the nonlabeled CHD and CDCHD or reference inhibitor (Table S1) and incubated at 37 °C for designated time intervals. […] Samples were diluted with incubation buffer, and fluorescence was measured in a 96-well plate (Sarstedt, flat bottom) at an extinction of 490 nm and emission of 535 nm. […]
The inhibitory effect I (%) and the efflux ratio was calculated in the same way described for the uptake assays.

uropathogenic E. coli = system: uropathogenic E. coli; set-up: method as in PMID 38047701; conditions: cited from earlier work
mOat2 = molecular target: T3, mOat2 (Mus musculus, UniProt Q91WU2); test: Two-point inhibition of mOat2-mediated cGMP uptake in transfected HEK293 cells; assay type: in vitro ADME; conditions: cGMP 10 μM, 5 min, read-out: inhibitory effect on mOat2
T3 construct: expressed in transfected cells; host or cells: HEK293
T3 sequence (Q91WU2 1-540): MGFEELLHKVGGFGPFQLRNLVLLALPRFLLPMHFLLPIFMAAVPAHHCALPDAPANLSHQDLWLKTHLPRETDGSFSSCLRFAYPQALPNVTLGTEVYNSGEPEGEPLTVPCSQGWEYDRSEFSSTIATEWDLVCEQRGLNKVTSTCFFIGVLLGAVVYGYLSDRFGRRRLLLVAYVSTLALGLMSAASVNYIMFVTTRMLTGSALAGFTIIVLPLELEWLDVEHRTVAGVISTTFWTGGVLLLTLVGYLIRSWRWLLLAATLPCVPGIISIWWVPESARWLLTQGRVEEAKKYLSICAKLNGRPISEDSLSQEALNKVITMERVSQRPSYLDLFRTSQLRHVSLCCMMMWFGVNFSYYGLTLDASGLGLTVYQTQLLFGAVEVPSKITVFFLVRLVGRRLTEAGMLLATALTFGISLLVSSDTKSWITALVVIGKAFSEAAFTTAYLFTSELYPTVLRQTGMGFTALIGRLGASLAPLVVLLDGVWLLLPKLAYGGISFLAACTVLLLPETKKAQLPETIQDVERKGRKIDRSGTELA
Experimental: as §1, with “Each well was coated with 0.5 mL of poly-D-lysine solution and incubated for at least 15 min. After complete removal of the solution, the plates were dried for 30 min. Cells (vector-transfected and transporter-transfected) treated with trypsin were immediately seeded into 24-well plates and cultured for 3 days before being used for transport experiments.” left out
For the uptake assay, the growth medium was aspirated, and each well was rinsed three times with 0.5 mL of incubation buffer (HBSS supplemented with 20 mM HEPES, pH 7.4) and incubated for 20 min at 37 °C. […] Cells were solubilized with 0.6 mL of 1N NaOH overnight and transferred into scintillation vials. ^3H and ^14C contents were measured after the addition of 2.5 mL of scintillator in a liquid scintillation counter.
The cellular protein amount was determined in parallel for each cell line (vector- and transporter-transfected) from six wells in a different 24-well reference plate using the Bradford method. […]
as §2

T2 sequence (Q92887 whole entry): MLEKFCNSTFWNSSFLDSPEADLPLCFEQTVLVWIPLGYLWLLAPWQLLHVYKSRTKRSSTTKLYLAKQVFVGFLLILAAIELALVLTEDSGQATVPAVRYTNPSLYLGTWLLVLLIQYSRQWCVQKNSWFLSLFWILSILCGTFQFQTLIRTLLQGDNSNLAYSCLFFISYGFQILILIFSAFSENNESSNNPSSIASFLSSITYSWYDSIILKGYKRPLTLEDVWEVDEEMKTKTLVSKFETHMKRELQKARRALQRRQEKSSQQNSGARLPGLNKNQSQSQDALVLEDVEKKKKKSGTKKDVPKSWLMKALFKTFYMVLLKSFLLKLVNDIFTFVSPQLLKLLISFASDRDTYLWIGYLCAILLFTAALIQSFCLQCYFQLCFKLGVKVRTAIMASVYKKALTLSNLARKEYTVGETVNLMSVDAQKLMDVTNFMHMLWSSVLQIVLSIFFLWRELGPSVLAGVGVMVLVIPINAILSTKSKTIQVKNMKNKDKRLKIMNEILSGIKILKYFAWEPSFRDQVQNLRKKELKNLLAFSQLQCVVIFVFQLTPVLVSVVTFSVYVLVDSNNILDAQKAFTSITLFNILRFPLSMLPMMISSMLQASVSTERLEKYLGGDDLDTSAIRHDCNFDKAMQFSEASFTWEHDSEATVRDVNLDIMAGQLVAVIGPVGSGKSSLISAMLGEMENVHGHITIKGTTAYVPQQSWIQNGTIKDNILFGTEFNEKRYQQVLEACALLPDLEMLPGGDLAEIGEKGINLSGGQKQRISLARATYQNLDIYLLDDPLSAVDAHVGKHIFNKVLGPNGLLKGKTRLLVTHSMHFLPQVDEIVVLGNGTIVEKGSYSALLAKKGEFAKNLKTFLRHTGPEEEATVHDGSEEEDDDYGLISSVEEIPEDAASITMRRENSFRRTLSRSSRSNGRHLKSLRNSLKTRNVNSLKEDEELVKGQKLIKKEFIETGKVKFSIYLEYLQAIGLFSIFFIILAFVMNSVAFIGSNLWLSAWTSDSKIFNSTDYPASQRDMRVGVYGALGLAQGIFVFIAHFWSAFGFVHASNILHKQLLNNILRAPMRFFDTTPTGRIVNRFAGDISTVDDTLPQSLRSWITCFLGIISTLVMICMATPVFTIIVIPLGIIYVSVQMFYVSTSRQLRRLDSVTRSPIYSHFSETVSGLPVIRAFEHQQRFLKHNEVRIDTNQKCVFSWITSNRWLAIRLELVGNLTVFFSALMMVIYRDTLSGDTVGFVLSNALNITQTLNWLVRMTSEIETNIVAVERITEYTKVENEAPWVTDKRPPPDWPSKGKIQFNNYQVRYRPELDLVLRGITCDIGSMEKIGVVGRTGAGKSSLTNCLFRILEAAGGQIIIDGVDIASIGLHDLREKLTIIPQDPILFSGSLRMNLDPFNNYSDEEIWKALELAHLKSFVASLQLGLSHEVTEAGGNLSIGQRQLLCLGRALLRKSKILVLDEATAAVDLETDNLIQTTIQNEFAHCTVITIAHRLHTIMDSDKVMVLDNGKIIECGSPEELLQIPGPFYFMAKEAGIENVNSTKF

Row | SMILES | inhibitory effect on hOAT4 (in words) (hOAT4) | enhanced uptake of substrate by hOAT4 (hOAT4) | inhibitory effect on hMRP2 (in words) (hMRP2) | effect in ascending urinary tract infection model (in words) (uropathogenic E. coli) | inhibition at 10 µM (mOat2)
1 | Cc1ccc2c(C)c3c(c(O)c2c1O)C(=O)[C@@]1(O)C(=O)C(C(N)=O)=C(O)[C@@H](N)[C@H]1C3 [CDCHD, amidochelocardin] | No inhibitory effect | up to 40% | slight inhibitory effect | pronounced effects | ~100%
2 | CC(=O)C1=C(O)[C@@H](N)[C@H]2Cc3c(c(O)c4c(O)c(C)ccc4c3C)C(=O)[C@@]2(O)C1=O [CHD, chelocardin] | No inhibitory effect | up to 40% | slight inhibitory effect | pronounced effects | ~100%

From article PMC11249637, “Interaction of the Atypical Tetracyclines Chelocardin and Amidochelocardin with Renal Drug Transporters” (ACS Pharmacology & Translational Science, 2024)
